Test results taken from patent US4034082A, “Method to prevent reproduction in warm-blooded female animals with nonapeptides” (Abbott Laboratories, priority 1976, dated 1977).

Legend:
[1] = system: Adult, female rats, mated; test: Prevention of implantation/pregnancy in mated rats (Example 2); format: in vivo, rat; settings: 10 μg s.c. b.i.d., day 3 to day 6 of gestation; for fate of the implantation sites: sacrificed day 13; for animals having implantation sites: sacrificed day 13, group of 9 (control: 8 of 9 pregnant); for total implantation sites found in the uteri of the group: sacrificed day 13, groups of 8 or 9 (control: 87 implantation and 3 resorbed sites)
Protocol: Adult, female rats weighing an average of 200 g. were mated and then randomly divided into groups of 8 and 9 rats. In all animals, mating was determined by the presence of sperms in the vaginal opening. In all animals, subcutaneous treatment was started on day 3 of gestation and continued until day 6 with 10 μg of the above compound, b.i.d. in an aqueous vehicle containing 0.1% bovine serum albumin and 0.9% sodium chloride at a concentration of 0.02% (wt./vol.). All animals were sacrificed on day 13 and checked for toxic manifestations, fetuses or viable implants.
In the first of four groups (control), the animals received the above vehicle only. […] Upon sacrifice, a total of 87 implantation and 3 resorbed sites was found in the uteri.

Pregnant rabbits = test: Fetal viability in pregnant rabbits after a single injection (Example 4); format: in vivo, rabbit; settings: single s.c. injection of 12.5 μg/kg on day 14 of gestation, sacrificed day 28 (control: 7 of 8 implants viable)
Protocol: Pregnant rabbits were given single subcutaneous injections of 12.5 μg/kg of the compounds used in Example 2 by the route and vehicle shown there on day 14 of gestation. […] In all instances, the animals were sacrificed on day 28 of gestation.

rats = test: Reversal of the anti-implantation effect by exogenous estradiol in treated rats; format: in vivo, rat; settings: rats treated days 2-6 of gestation, estradiol 0.1 μg s.c. in sesame oil on days 4 and 5; for animals in which implantation takes place when estradiol is co-administered: of 8 animals

Row | SMILES | fate of the implantation sites [1] | animals showing no signs of implantation ([1]; sacrificed day 13, group of 9) | animals having implantation sites [1] | total implantation sites found in the uteri of the group [1] | viable fetuses per implants (average) (Pregnant rabbits) | viability of embryos when estradiol is co-administered (rats) | animals in which implantation takes place when estradiol is co-administered (rats)
1 | CCNC(=O)[C@@H]1CCCN1C(=O)[C@H](CCCNC(=N)N)NC(=O)[C@H](CC(C)C)NC(=O)[C@@H](Cc1c[nH]c2ccccc12)NC(=O)[C@H](Cc1ccc(O)cc1)NC(=O)[C@H](CO)NC(=O)[C@H](Cc1c[nH]c2ccccc12)NC(=O)[C@H](Cc1c[nH]cn1)NC(=O)[C@@H]1CCC(=O)N1 [Compound A] | all resorbed | Seven | two | 25 | one viable fetus per 7 implants | substantially only viable embryos | 3
2 | CCNC(=O)[C@@H]1CCCN1C(=O)[C@H](CCCNC(=N)N)NC(=O)[C@H](CC(C)C)NC(=O)[C@@H](Cc1ccccc1)NC(=O)[C@H](Cc1ccc(O)cc1)NC(=O)[C@H](CO)NC(=O)[C@H](Cc1c[nH]c2ccccc12)NC(=O)[C@H](Cc1c[nH]cn1)NC(=O)[C@@H]1CCC(=O)N1 [Compound C] | resorbed | – | – | single | one viable fetus per 7 implants | substantially only viable embryos | 3
3 | CCNC(=O)[C@@H]1CCCN1C(=O)[C@H](CCCNC(=N)N)NC(=O)[C@H](CC(C)C)NC(=O)[C@@H](Cc1ccc(O)cc1)NC(=O)[C@H](Cc1ccc(O)cc1)NC(=O)[C@H](CO)NC(=O)[C@H](Cc1c[nH]c2ccccc12)NC(=O)[C@H](Cc1c[nH]cn1)NC(=O)[C@@H]1CCC(=O)N1 [Compound B] | all 22 counted sites had been resorbed | – | 2 | 22 | one viable fetus per 7 implants | substantially only viable embryos | 3
